Values after ≈ are worked out from the molar mass of the structure shown. Where two headings read alike, the source gives them in different places. Numbered stars: 1 amine (or outer) side, 2 acyl side, 3 side chain; on linkers, the order of the positions; unused ones are H or OH. Bridge positions count the residues as written; N and C are the ends. Side chains are listed from the residue outwards. Peptide text beside a SMILES is read from it. * marks the point of attachment. C20 diacid = O=C(O)CCCCCCCCCCCCCCCCCCC(=O)*; γGlu = O=C(O)[C@H](CCC(=O)[*:2])N[*:1]
Tests used:
rat calcitonin receptor = biological target: T1, rat calcitonin receptor (Rattus norvegicus, UniProt P32214); assay: ASSAY (VIII) binding to the rat calcitonin receptor; details: Table 7, read-out: rCTR bind IC50
T1 construct: expressed in transfected cells; host or cells: BHK tk'ts 13 (transient, FuGENE 6), membranes
T1 sequence (P32214 25-479 isoform P32214-2 limits assumed): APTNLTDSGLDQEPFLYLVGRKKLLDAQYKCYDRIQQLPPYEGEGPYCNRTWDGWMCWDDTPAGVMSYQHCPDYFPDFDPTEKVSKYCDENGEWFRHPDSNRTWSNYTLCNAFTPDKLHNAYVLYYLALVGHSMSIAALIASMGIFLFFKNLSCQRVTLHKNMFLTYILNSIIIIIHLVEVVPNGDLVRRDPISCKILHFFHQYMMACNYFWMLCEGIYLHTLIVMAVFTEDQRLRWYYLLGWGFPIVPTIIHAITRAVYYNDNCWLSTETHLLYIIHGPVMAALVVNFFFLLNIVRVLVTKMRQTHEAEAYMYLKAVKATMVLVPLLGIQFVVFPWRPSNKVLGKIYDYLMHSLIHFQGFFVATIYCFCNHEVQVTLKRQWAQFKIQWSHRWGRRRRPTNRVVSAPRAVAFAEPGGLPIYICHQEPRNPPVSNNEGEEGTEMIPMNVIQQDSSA
Procedure, shortened: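 BHK tk′ts 13 cells, transient rat calcitonin receptor transfection; DMEM + 10% FBS; harvest ~48 h post-transfection; membrane prep.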

[1] = ASSAY (IV) determination of solubility; assay type: physicochemical
Procedure, shortened: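 Solubility measured by UPLC of supernatant after centrifugation, following 18 h at room temperature. Peptide ([…] in water) was diluted 1:1 into 100 mM glycylglycine (pH 3.0, 4.0, 5.0) or bistrispropane (pH 6.0-8.0).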

[2] = biological target: T2, human amylin receptor (membranes from Amylin 3(a)/CRE-luc cells) (Homo sapiens, UniProt O60896+P30988); assay: ASSAY (V) binding to the human amylin receptor (SPA, 125I-rat amylin);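 note: competition binding of cell membranes (35 ng/µL) mixed with SPA beads in 384-well plates at 40 µL total volume, read by scintillation counting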
T2 construct: expressed in transfected cells
T2 sequence (P30988 25-474): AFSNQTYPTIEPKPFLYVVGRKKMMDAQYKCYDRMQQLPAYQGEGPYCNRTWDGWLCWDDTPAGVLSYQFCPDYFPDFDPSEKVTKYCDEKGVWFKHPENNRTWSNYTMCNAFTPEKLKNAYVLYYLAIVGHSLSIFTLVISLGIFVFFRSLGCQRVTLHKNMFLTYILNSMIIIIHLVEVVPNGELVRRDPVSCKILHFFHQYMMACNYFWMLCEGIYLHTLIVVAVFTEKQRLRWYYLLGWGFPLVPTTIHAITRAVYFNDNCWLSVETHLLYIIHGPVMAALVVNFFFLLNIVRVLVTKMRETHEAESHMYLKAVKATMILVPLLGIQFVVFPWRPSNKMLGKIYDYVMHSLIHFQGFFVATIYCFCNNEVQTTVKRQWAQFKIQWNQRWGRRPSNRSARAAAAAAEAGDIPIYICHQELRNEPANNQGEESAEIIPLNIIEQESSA
T2 sequence (O60896 24-148 partner): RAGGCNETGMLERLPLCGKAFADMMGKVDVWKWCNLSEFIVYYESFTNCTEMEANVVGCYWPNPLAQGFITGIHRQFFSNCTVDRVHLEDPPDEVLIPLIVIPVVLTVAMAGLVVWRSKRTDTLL

[3] = biological target: T3, rat amylin receptor (rat calcitonin receptor + rat RAMP 3) (Rattus norvegicus, UniProt P32214+Q9JJ73); assay: ASSAY (VI) binding to the rat amylin receptor
T3 construct: expressed in transfected cells; host or cells: BHK tk'ts 13 (transient, FuGENE 6), membranes
T3 sequence (P32214 25-479 isoform P32214-2 limits assumed): T1 sequence (P32214 25-479 isoform P32214-2 limits assumed)
T3 sequence (Q9JJ73 23-147 partner): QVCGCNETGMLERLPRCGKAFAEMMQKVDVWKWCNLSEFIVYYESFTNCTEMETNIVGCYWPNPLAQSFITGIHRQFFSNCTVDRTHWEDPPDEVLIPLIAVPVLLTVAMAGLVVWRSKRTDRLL
Procedure, shortened: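 Membranes for this rat amylin receptor binding assay came from BHK tk′ts 13 cells. The cells were transiently transfected with rat calcitonin receptor using the FuGENE® 6 reagent from Roche, as the manufacturer recommends. The cells were collected approximately 48 hours after transfection, and membranes were then prepared.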

[4] = biological target: T4, human calcitonin receptor (Homo sapiens, UniProt P30988); assay: ASSAY (VII) binding to the human calcitonin receptor (SPA, 125I-Calcitonin); details: read-out: hCTR bind IC50;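 note: cell membranes (35 ng/µL) combined with SPA beads in 40 µL of pH 7.4 Hepes buffer, 384-well format, signal counted on a TopCounter instrument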
T4 construct: expressed in transfected cells
T4 sequence (P30988 25-474): T2 sequence (P30988 25-474)

[5] = biological target: T5, human calcitonin (a) receptor in BHK570 cells (Homo sapiens, UniProt P30988); assay: ASSAY (II)a functional assay, human calcitonin receptor (CRE luciferase); assay type: cell-based; details: read-out: hCTR funct. EC50
T5 construct: expressed in transfected cells
T5 sequence (P30988 25-474): T2 sequence (P30988 25-474)
Procedure, shortened: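 Readout is luminescence from a cAMP-responsive CRE-luc reporter, developed with LucLite for 30 min at room temperature. Cells were treated for 3 h at 37 °C in 10% FBS/DMEM buffered with 10 mM Hepes (pH 7.4).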

- IC50 (rat calcitonin receptor): 18 nM
- solubility at 18 h ([1]; bistrispropane buffer, pH 6.5, read-out: Solubility pH 6.5 Concentration): ≥ 200 µM
- solubility at 18 h ([1]; bistrispropane buffer, pH 7.5, read-out: Solubility pH 7.5 Concentration): ≥ 200 µM
- solubility at 18 h ([1]; bistrispropane buffer, pH 6.0, read-out: Solubility pH 6.0 Concentration): ≥ 200 µM
- solubility at 18 h ([1]; bistrispropane buffer, pH 7.0, read-out: Solubility pH 7.0 Concentration): ≥ 200 µM
- solubility at 18 h ([1]; bistrispropane buffer, pH 8.0, read-out: Solubility pH 8.0 Concentration): 189 µM (≈ 829 µg/mL)
- solubility at 18 h ([1]; glycylglycine buffer, pH 3.0, read-out: Solubility pH 3.0 Concentration): ≥ 200 µM
- solubility at 18 h ([1]; glycylglycine buffer, pH 4.0, read-out: Solubility pH 4.0 Concentration): ≥ 200 µM
- solubility at 18 h ([1]; glycylglycine buffer, pH 5.0, read-out: Solubility pH 5.0 Concentration): ≥ 200 µM
- IC50 ([2]; Table 4, read-out: hAmylin-R bind IC50): 0.098 nM
- Ratio hCT/hAmylin binding ([2]; Table 5, selectivity, hCTR bind IC50 / hAmylin-R bind IC50): 63.0
- Ratio hCT/hAmylin binding ([2]; Table 5a, selectivity, hCTR bind IC50 / hAmylin-R bind IC50): 63.0
- Ratio hCT/hAmylin binding ([2]; Table 5b, selectivity, hCTR bind IC50 / hAmylin-R bind IC50): 63.0
- Ratio hCT/hAmylin binding ([2]; Table 5c, selectivity, hCTR bind IC50 / hAmylin-R bind IC50): 63.0
- Ratio hCT/hAmylin binding ([2]; Table 7, human binding selectivity, included for comparison): 63.0
- Ratio hCT/hAmylin binding ([2]; Table 7a (preferred compounds), human binding selectivity, included for comparison): 63.0
- Ratio hCT/hAmylin binding ([2]; ratio of human calcitonin receptor binding IC50 to human amylin receptor binding IC50): 63.0
- IC50 ([3]; Table 7, binding to rat amylin receptor, read-out: rAmylin-R bind IC50): 0.42 nM
- Ratio rCT/rAmylin binding ([3]; Table 7, rat binding selectivity, rCTR IC50 / rAmylin-R IC50): 42.8
- Ratio rCT/rAmylin binding ([3]; Table 7a (preferred compounds), rat binding selectivity, rCTR IC50 / rAmylin-R IC50): 42.8
- Ratio rCT/rAmylin binding ([3]; ratio of rCTR bind IC50 to rAmylin-R bind IC50): 42.8
- IC50 [4]: 6.17 nM
- EC50 [5]: 0.539 nM
Structure (SMILES): CC[C@H](C)[C@H](NC(=O)[C@H](C)NC(=O)CNC(=O)[C@H](Cc1ccccc1)NC(=O)[C@H](CC(N)=O)NC(=O)[C@@H]1CCCN1C(=O)[C@H](CO)NC(=O)[C@H](CO)NC(=O)[C@H](Cc1c[nH]cn1)NC(=O)[C@H](CCCNC(=N)N)NC(=O)[C@H](CC(C)C)NC(=O)[C@H](Cc1ccccc1)NC(=O)[C@H](Cc1c[nH]cn1)NC(=O)[C@H](C)NC(=O)[C@H](CC(C)C)NC(=O)[C@H](CCCNC(=N)N)NC(=O)[C@H](CCC(N)=O)NC(=O)[C@@H](NC(=O)[C@H](C)NC(=O)[C@@H]1CSSC[C@H](NC(=O)[C@@H](N)CCCCNC(=O)CC[C@H](NC(=O)CCCCCCCCCCCCCCCCCCC(=O)O)C(=O)O)C(=O)N[C@@H](CC(N)=O)C(=O)N[C@@H]([C@@H](C)O)C(=O)N[C@@H](C)C(=O)N[C@@H]([C@@H](C)O)C(=O)N1)[C@@H](C)O)C(=O)N1CCC[C@H]1C(=O)N[C@@H](CO)C(=O)N[C@@H](CO)C(=O)N[C@H](C(=O)N1CCC[C@H]1C(=O)N[C@H](C(=O)NCC(=O)N[C@@H](CO)C(=O)N[C@@H](CC(N)=O)C(=O)N[C@H](C(=O)N[C@@H](Cc1ccc(O)cc1)C(N)=O)[C@@H](C)O)C(C)C)[C@@H](C)O [Example 62] (H-K([γGlu-C20 diacid])CNTATCATQRLAHFLRHSSPNFGAIPSSTPVGSNTY-NH2; disulfide 2-7; N-terminus assumed)

Reference: patent US9023789B2, “Amylin analogs and pharmaceutical compositions thereof” (Novo Nordisk A/S, priority 2012, dated 2015)
